Values quoted from earlier work as cited in publication PMC8799869, “D-enantiomers of CATH-2 enhance the response of macrophages against Streptococcus suis serotype 2” (Journal of Advanced Research, 2021).

Conditions: intravenous administration; blood and peritoneum; cited from earlier work
Description: In this study injection of D-C(1–21) reduced disease severity and increased the survival rate, although the differ ...

For LL-37, the “survival and bacterial load in septic mice” value is listed as “improved the survival and reduced the bacterial load”.
